Results published in US8993760B2, “Rock inhibitors and uses thereof” (University of South Florida, priority 2006, dated 2015).
Read-outs that look alike come from different tables or passages of the source.

Target: Rho-kinase (ROCK1) (Homo sapiens, UniProt Q13464)
Test: Rho-kinase (ROCK1) inhibition
Type: biochemical
Conditions: for % Inhibition / Inhibition: concentration not given
[1] = Table 2, first number of the cell
[2] = Table 3, first number of the cell
[3] = Table 1, first number of the cell
[4] = read-out: IC50, inhibitory activity against Rho-kinase activity

Chain of Rho-kinase (ROCK1) (Q13464 whole entry, species assumed): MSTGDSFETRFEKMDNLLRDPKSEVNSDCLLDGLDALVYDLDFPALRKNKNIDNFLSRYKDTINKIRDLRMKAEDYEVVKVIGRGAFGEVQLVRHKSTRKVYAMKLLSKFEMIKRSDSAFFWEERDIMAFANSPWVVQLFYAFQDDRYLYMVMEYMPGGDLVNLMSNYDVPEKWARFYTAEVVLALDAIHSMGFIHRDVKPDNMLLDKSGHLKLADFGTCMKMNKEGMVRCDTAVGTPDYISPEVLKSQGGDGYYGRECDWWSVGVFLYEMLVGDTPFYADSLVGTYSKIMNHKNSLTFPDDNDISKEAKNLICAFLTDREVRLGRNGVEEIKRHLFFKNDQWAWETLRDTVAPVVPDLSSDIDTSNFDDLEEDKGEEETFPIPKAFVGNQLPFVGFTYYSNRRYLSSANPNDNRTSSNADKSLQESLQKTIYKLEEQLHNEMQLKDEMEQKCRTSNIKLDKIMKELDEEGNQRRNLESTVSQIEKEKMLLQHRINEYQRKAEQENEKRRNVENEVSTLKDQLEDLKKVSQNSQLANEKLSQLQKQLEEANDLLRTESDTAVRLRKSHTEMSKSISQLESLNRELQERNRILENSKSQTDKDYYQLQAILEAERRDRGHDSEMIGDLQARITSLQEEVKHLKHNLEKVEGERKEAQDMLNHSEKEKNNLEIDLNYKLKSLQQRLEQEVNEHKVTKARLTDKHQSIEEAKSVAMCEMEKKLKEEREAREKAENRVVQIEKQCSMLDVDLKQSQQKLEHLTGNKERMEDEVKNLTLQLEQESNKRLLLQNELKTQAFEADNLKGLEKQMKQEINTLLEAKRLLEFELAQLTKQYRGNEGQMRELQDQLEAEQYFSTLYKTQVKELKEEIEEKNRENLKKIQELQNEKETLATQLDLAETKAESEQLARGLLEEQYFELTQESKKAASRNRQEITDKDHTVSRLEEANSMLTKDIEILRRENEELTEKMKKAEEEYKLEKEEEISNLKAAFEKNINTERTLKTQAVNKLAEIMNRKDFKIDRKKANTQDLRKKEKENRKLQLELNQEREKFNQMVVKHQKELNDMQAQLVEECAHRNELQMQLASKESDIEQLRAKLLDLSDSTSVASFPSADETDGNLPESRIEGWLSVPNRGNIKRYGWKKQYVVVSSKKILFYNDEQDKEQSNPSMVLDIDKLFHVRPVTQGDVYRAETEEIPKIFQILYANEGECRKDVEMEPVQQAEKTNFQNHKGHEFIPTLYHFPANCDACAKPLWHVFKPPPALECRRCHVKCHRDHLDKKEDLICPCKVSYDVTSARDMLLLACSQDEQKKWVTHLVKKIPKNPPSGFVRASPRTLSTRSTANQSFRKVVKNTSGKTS

Q: How did the “Inhibition (@ 100 μM)” value (Table 4) turn out when `O=C(Nc1ccncc1)N1CCN[C@@H](COCc2ccccc2)C1` [Compound 12a] was run?
A: 9.58

Q: For `O=C1CN(Cc2ccncc2)C(=O)[C@H](CO)N1` [Compound 1d], which “% Inhibition (@ 100 μM)” value (Table 2) is on record?
A: 1.73%

Q: What about the “% Inhibition” value [1] of the same compound?
A: 45%

Q: With `O=C(CN1CCCN(Cc2ccccc2)CC1)Nc1ccncc1` [IP-IV-73] as the compound, how does the “% Inhibition (@ 100 μM)” value (Table 5) read?
A: 13.31 (@ 100 μM) %

Q: Which Inhibition [2] does the source give for `CC(C)(C)OC(=O)N1CCN(C(=O)c2cccc3cnccc23)C[C@@H]1Cc1ccccc1` [IP-III-153] here?
A: 91

Q: How did the “Inhibition (@ 100 μM)” value (Table 4) turn out when `CCOC(=O)C1CCN(C(=O)Nc2ccncc2)CC1` [Compound 7] was run?
A: 6.29 (@ 100 μM)

Q: Which “% Inhibition” value [3] does the source give for `c1ccc(C[C@H]2CN(c3ccnc4ccccc34)CCN2)cc1` [IP-IV-47] here?
A: 43%

Q: How did the “% Inhibition (@ 100 μM)” value (Table 2) turn out when `CSCC[C@H]1CN(Cc2ccccc2)CCN1` [Compound 4b] was run?
A: 0.53%

Q: What about the “% Inhibition” value [1] of the same compound?
A: 60%

Q: `CC(C)[C@H]1CN(C(=O)c2cccc3cnccc23)CCN1C(=O)OC(C)(C)C` [IP-IV-89] was tested. Which Inhibition [2] did it give?
A: 82

Q: Which IC50 (Table 4, read-out: IC50) does the source give for `O=C(Nc1ccncc1)NC1CCN(Cc2ccccc2)CC1` [Compound 14a] here?
A: 90 µM

Q: How did the “Inhibition (@ 100 μM)” value (Table 4) turn out when `O=C(Nc1ccncc1)N1CCCNCC1` [Compound 10] was run?
A: 16.7 (@ 100 μM)

Q: `CC(C)(C)OC(=O)N1CCN(c2cccc3cnccc23)C[C@@H]1COCc1ccccc1` [IP-IV-43] was tested. Which “% Inhibition (@ 100 μM)” value (Table 1) did it give?
A: 4.73%

Q: And the “% Inhibition” value [3]?
A: 49%

Q: For `OC[C@H]1CN(Cc2ccncc2)CCN1` [Compound 2d], which “% Inhibition (@ 100 μM)” value (Table 2) is on record?
A: 3.73%

Q: What about the “% Inhibition” value [1] of the same compound?
A: 20%

Q: For `c1ccc(C[C@H]2CN(Cc3cccc4ncccc34)CCN2)cc1` [IP-IV-109 R = H2], which IC50 (Table 3, read-out: IC50) is on record?
A: 67 µM

Q: `CSCC[C@@H]1NC(=O)CN(Cc2cccc3ccccc23)C1=O` [Compound 5b] was tested. Which “% Inhibition (@ 100 μM)” value (Table 2) did it give?
A: −1.48%

Q: What about the “% Inhibition” value [1] of the same compound?
A: 93%

Q: How did the “inhibitory activity / disruption of Rho-kinase activity (in words)” value (“inhibitory activity / disruption” below) turn out when `CC(C)(C)OC(=O)N1CCN(c2cccc3cnccc23)C[C@@H]1Cc1ccccc1` [IP-IV-41] was run?
A: potent disrupters of active Rho-kinase

Q: What about the “% Inhibition (@ 100 μM)” value (Table 1) of the same compound?
A: 9.71%

Q: And the “% Inhibition” value [3]?
A: 83%

Q: Which “% Inhibition (@ 100 μM)” value (Table 5) does the source give for `O=C(CN1CCCNCC1)Nc1ccncc1` [IP-IV-81] here?
A: 30.61 (@ 100 μM) %

Q: For `Cl.O=C(O)C1CCN(C(=O)Nc2ccncc2)CC1` [Compound 8], which “Inhibition (@ 100 μM)” value (Table 4) is on record?
A: 1.59 (@ 100 μM)

Q: For `O=C(Nc1ccncc1)N1CCCN(Cc2ccccc2)CC1` [Compound 9], which “Inhibition (@ 100 μM)” value (Table 4) is on record?
A: 21.0 (@ 100 μM)

Q: `O=C(Nc1ccncc1)NC1CCNCC1` [Compound 15a] was tested. Which IC50 (Table 4, read-out: IC50) did it give?
A: 55 µM

Q: For `O=C(c1cccc2cnccc12)N1CCN[C@@H](Cc2ccccc2)C1` [IP-IV-15], which Inhibition [2] is on record?
A: 70

Q: How did the “% Inhibition (@ 100 μM)” value (Table 2) turn out when `O=C1CN(Cc2ccccc2)C(=O)[C@H](Cc2ccccc2)N1` [Compound 3e] was run?
A: 0.75%

Q: What about the “% Inhibition” value [1] of the same compound?
A: 61%

Q: With `O=C(Nc1ccncc1)OC1CCN(Cc2ccccc2)CC1` [Compound 14b] as the compound, how does the IC50 (Table 4, read-out: IC50) read?
A: 56 µM

Q: `c1ccc(C[C@H]2CN(Cc3cccc4cnccc34)CCN2)cc1` [IP-IV-29] was tested. Which Inhibition [2] did it give?
A: 16 IC50 = 16 μM

Q: What about the IC50 (Table 3, read-out: IC50) of the same compound?
A: 16 µM

Q: `CSCC[C@@H]1NC(=O)CN(Cc2ccncc2)C1=O` [Compound 1b] was tested. Which “% Inhibition (@ 100 μM)” value (Table 2) did it give?
A: 1.96%

Q: And the “% Inhibition” value [1]?
A: 25%

Q: How did the “% Inhibition” value [1] turn out when `O=C1CN(Cc2ccncc2)C(=O)[C@H](Cc2ccccc2)N1` [Compound 1e] was run?
A: ~20%

Q: `O=C1CN(Cc2cccc3ccccc23)C(=O)[C@H](Cc2ccccc2)N1` [Compound 5e] was tested. Which “% Inhibition (@ 100 μM)” value (Table 2) did it give?
A: −1.87%

Q: And the “% Inhibition” value [1]?
A: 71%

Q: Which “% Inhibition” value [3] does the source give for `CC(C)(C)OC(=O)N1CCN(c2ccnc3ccccc23)C[C@@H]1COCc1ccccc1` [IP-IV-35] here?
A: 54%

Q: With `O=C(Nc1cccc2cnccc12)N1CCCN(Cc2ccccc2)CC1` [IP-IV-105] as the compound, how does the “% Inhibition (@ 100 μM)” value (Table 5) read?
A: −0.85 (@ 100 μM) %

Q: Which results are given for `c1ccc([C@H]2CN(c3cccc4cnccc34)CCN2)cc1` [IP-IV-67]?
A: % Inhibition [3]: 67%; IC50 (Table 1, read-out: IC50): 3.5 µM

Q: `CC(C)[C@H]1CN(C(=O)c2cccc3cnccc23)CCN1` [IP-IV-103] was tested. Which Inhibition [2] did it give?
A: 81

Q: Which “% Inhibition (@ 100 μM)” value (Table 5) does the source give for `CCOC(=O)C1CCN(CC(=O)Nc2ccncc2)CC1` [IP-IV-39] here?
A: −1.46 (@ 100 μM) %

Q: How did the “% Inhibition (@ 100 μM)” value (Table 2) turn out when `CSCC[C@H]1CN(Cc2ccncc2)CCN1` [Compound 2b] was run?
A: 4.35%

Q: And the “% Inhibition” value [1]?
A: 36%

Q: `CSCC[C@H]1CN(Cc2cccc3ccccc23)CCN1` [Compound 6b] was tested. Which “% Inhibition (@ 100 μM)” value (Table 2) did it give?
A: 11.9%

Q: And the “% Inhibition” value [1]?
A: 62%

Q: `CC(C)(C)OC(=O)N1CCN(c2ccnc3ccccc23)C[C@@H]1Cc1ccccc1` [IP-IV-33] was tested. Which “% Inhibition” value [3] did it give?
A: 47%

Q: For `O=C(Nc1cccc2cnccc12)OC1CCN(Cc2ccccc2)CC1` [IP-IV-115], which “% Inhibition” value (Table 5) is on record?
A: 50%

Q: `c1ccc(COC[C@H]2CN(c3ccnc4ccccc34)CCN2)cc1` [IP-IV-49] was tested. Which “inhibitory activity / disruption” value did it give?
A: potent disrupters of active Rho-kinase

Q: What about the “% Inhibition” value [3] of the same compound?
A: 85%

Q: For `O=C(c1cccc2ncccc12)N1CCNC(Cc2ccccc2)C1` (stereo not drawn) [IP-IV-109 R = O], which “Inhibition (@ 100 μM)” value (Table 3) is on record?
A: 1.55 (@ 100 μM)

Q: Which “inhibitory activity / disruption” value does the source give for `O=C(Nc1ccncc1)N1CCN[C@@H](Cc2ccccc2)C1` [Compound 12b] here?
A: potent disrupters of active Rho-kinase

Q: And the IC50 [4]?
A: 14 µM

Q: For `CC(C)[C@H]1CN(Cc2cccc3cnccc23)CCN1` [IP-IV-107], which Inhibition [2] is on record?
A: 29

Q: And the IC50 (Table 3, read-out: IC50)?
A: 22 µM

Q: Which results are given for `O=C(Nc1ccncc1)OC1CCNCC1` [Compound 16b]?
A: inhibitory activity / disruption of Rho-kinase activity (in words): potent disrupters of active Rho-kinase; IC50 [4]: 7.5 µM

Q: For `O=C(Nc1cccc2cnccc12)NC1CCCCCC1` [IP-IV-129], which “% Inhibition” value (Table 5) is on record?
A: 50%

Q: For `CSCC[C@@H]1NC(=O)CN(Cc2ccccc2)C1=O` [Compound 3b], which “% Inhibition” value [1] is on record?
A: 78%

Q: Which “inhibitory activity / disruption” value does the source give for `c1ccc(C[C@H]2CN(Cc3cccc4ccccc34)CCN2)cc1` [Compound 6e, N-Naphtylmethyl-3-benzyl piperazine] here?
A: particular effectiveness

Q: What about the “% Inhibition (@ 100 μM)” value (Table 2) of the same compound?
A: 20.4%

Q: And the “% Inhibition” value [1]?
A: 75%
